Biological target: ThyX (Rv2754c), flavin-dependent thymidylate synthase (Mycobacterium tuberculosis, UniProt P9WG57)
Assay: intrinsic fluorescence quenching, modified Stern-Volmer
Format: binding
Conditions: 303 K, 5 µM protein, n ~1, double-log
Excerpt: intrinsic fluorescence quenching, modified Stern-Volmer on ThyX (Rv2754c), flavin-dependent thymidylate synthase

Sequence of ThyX (Rv2754c), flavin-dependent thymidylate synthase (P9WG57 whole entry, looked up): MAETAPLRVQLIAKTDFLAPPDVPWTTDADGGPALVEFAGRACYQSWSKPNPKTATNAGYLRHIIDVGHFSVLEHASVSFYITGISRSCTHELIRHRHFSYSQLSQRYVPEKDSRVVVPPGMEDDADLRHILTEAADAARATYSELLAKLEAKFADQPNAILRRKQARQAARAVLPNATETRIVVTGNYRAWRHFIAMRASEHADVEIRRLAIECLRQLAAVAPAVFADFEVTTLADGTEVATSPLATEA

Structure (SMILES) | Ka (× 10^6 mol^-1) (PBS pH 7.4, excitation 280 nm) | Ka (× 10^6 mol^-1) (positive control, text prints unit as M^−1s^−1)
NC(=O)N[C@@H](CCC(=O)O)C(=O)O [carglumic acid] | 4.28 × 10^6 mol^−1 | –
Nc1ccc(O)c(C(=O)O)c1 [mesalazine] | 4.73 × 10^6 mol^−1 | –
Nc1ccc(C(=O)O)c(O)c1 [para-amino salicylic acid, reference compound] | – | 3.44 × 10^6 mol^−1
